This is an account of results in article PMC12118186 (2023).

Experiment [1] has as its system SA1 (DNA, aptamer) ACGACCTGACTTCCCATGGGATCTTCACTTAAATGGTCGT
The experiment is described as follows: ThT fluorescence displacement titration. The conditions noted are these: 100 mM Na+, pH 6.0, 1 μM DNA; for binding: 1 mM Mg2+, MES, 2 μM thioflavin T, 30 μM compound.

The test system is the same in experiment [2]. The experiment is described as follows: ITC. Conditions: 100 mM Na+, 5 mM Mg2+; 10 mM MES, pH 6.0, 25°C; one-site fit; 20 μM aptamer.
Experiment [3] concerns SA2 (DNA, aptamer) ACGACGGGGGACCGGAAACAAGTGCAAAACGCTTCGTCGT
The experiment is described as follows: ThT fluorescence displacement titration. The conditions noted are these: 100 mM Na+, 1 mM Mg2+ (Figure 2 legend; methods: 5 mM); 10 mM MES, pH 6.0; apparent; tracer 2 μM thioflavin T; signal change only about 20%.

Experiment [4] has as its system SA1 (DNA, aptamer) ACGACCTGACTTCCCATGGGATCTTCACTTAAATGGTCGT
The experiment is described as follows: fluorescence enhancement. The conditions noted are these: 100 mM Na+, 1 mM Mg2+ (Figure 2 legend; methods: 5 mM); 10 mM MES, pH 6.0; 1 μM DNA, 2 μM thioflavin T; described as nonspecific.

For `CC(=O)Oc1ccccc1C(=O)O`, the binding result in experiment [1] is “no”.

Regarding `O=C(O)c1ccccc1O`, the Kd stood at 5.8 µM in experiment [1] (1 mM Mg2+ (Figure 2 legend; methods: 5 mM), 10 mM MES, apparent, tracer 2 μM thioflavin T); 26.7 ± 5.6 µM in experiment [2]; 11 µM in experiment [3].

On to `Cc1ccc2c(c1)sc(-c1ccc(N(C)C)cc1)[n+]2C`, for which, in experiment [4], the binding result is “yes”.

Regarding `O=C(O)c1ccc(O)cc1`, in experiment [1], the binding result is given as “weak”.
